Reference: patent US10100083B2, “Leukemia stem cell targeting ligands and methods of use” (The Regents of the University of California, priority 2011, dated 2018)
Positions of bridges follow the written chain, without caps; N, C: chain ends. No end group written: not given here.

Assays:
[1] = Balb/c mice, follow-up for up to 10 days
[2] = in vivo; conditions: Balb/c, mouse
[3] = tested on: CLL1; test: Binding of phage displaying the peptide to A549 cells expressing CLL1-RFP (anti-M13 antibody-FITC); conditions: anti-M13 monoclonal antibody-FITC
Procedure: (§1) FIGS. 1A-D illustrate identification of peptides that target CLL1. A. Panning strategy to identify CLL1-targeting peptides. Before each round of panning, the C7C phage peptide display library was subtracted with various cells to remove phage that could bind to those confounding cell types. B. Binding of phage to cells expressing CLL1. A549 cells were transfected with CLL1-RFP (a) or RFP (b, control), incubated with phage expressing the […] (SEQ ID NO: 17)peptide, and probed with anti-M13 phage antibody conjugated with FITC. Binding of phage to A549 cells expressing CLL1-RFP (c), but not to A549 cells expressing RFP (d) was observed. C. Binding of the […] (SEQ ID NO: 17)peptide to CLL1. Biotinylated […] (SEQ ID NO: 17) peptide was synthesized and used to probe PBMC, A549 transfected with vector alone, and A549 cells expressing CLL1. […] Upper panel: cells were probed with streptavidin (SA)-FITC. Lower panels: cells were probed with CLL1-targeting peptide and SA-FITC. D. Binding specificity of the […] (SEQ ID NO: 17)peptide. Cells of various origins were incubated with the biotinylated CLL1-targeting peptide or a bladder cancer-specific peptide, named PLZ4 as a negative control, and probed with SA-PE.
(§2) After panning, a total of 36 phage clones were sequenced. […] Expression of CLL1-RFP or RFP could be visualized by the appearance of red fluorescence. […]
Target sequence in this assay (Q5QGZ9 65-265 limits assumed): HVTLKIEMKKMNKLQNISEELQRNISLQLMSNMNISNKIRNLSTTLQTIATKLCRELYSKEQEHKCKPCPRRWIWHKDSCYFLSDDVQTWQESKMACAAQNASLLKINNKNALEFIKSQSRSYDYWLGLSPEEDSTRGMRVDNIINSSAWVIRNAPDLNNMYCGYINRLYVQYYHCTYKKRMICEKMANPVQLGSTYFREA

[4] = tested on: A549 cells expressing RFP; test: Binding of phage displaying the peptide to control A549 cells expressing RFP
Procedure: as §1, §2

[5] = tested on: CLL1; test: Flow cytometry binding of biotinylated peptide to cells expressing CLL1
Procedure: (§3) One peptide, CLL1-L1, with the sequence of […] (SEQ ID NO: 17) was synthesized for further analysis. To determine the binding specificity, cell lines purchased from the American Type Culture Collection (ATCC), such as PC3N (Prostate), HepG2 (Liver), Skov-3 (Ovarian), 5637 (Bladder), HCT-116 (Colon), RPMI8226 (Myeloma), A549 (Lung), K562 (Leukemia), A549 and K562 cells, both expressing CLL1, were incubated with CLL1-L1 conjugated to biotin and probed with streptavidin-phycoerythrin (PE) (excitation 480 nm, emission 578 nm) (FIG. 1D). A bladder cancer-specific ligand, PLZ4, conjugated to biotin was used as the negative control.
After panning, a total of 36 phage clones were sequenced. After alignment, two consensus sequences were identified: CXLR(S/T)AAVC (SEQ ID NO: 34) and CXLRSSGPC (SEQ ID NO: 24) (Table 1), in which “X” represents several amino acids that can be replaceable. Serine (S) and threonine (T) belong to the same hydrophilic class of amino acids with only one methyl group difference. Of these two major sequences, one common motif exists: “LR(S/T)”. To confirm that these ligands indeed bind to CLL1, A549 cells were transfected with a CCL1-RFP expression vector (FIG. 1B panel a) or RFP (FIG. 1B panel b, the control). Expression of CLL1-RFP or RFP could be visualized by the appearance of red fluorescence. For subsequent in depth characterization, we selected the peptide […] […]
Target sequence in this assay (Q5QGZ9 44-265 limits assumed): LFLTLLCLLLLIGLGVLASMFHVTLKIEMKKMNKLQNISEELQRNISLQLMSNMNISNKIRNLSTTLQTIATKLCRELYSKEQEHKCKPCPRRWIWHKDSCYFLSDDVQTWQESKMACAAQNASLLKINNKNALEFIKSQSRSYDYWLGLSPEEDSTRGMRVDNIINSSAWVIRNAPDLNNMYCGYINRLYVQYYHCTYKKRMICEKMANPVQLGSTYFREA

[6] = tested on: PBMC, parental A549, K562 or other cell lines; test: Flow cytometry binding of biotinylated peptide to PBMC, parental and other cell lines (binding specificity)
Procedure: as §3
After panning, a total of 36 phage clones were sequenced. After alignment, two consensus sequences were identified: CXLR(S/T)AAVC (SEQ ID NO: 34) and CXLRSSGPC (SEQ ID NO: 24) (Table 1), in which “X” represents several amino acids that can be replaceable. Serine (S) and threonine (T) belong to the same hydrophilic class of amino acids with only one methyl group difference. Of these two major sequences, one common motif exists: “LR(S/T)”. To confirm that these ligands indeed bind to CLL1, A549 cells were transfected with a CCL1-RFP expression vector (FIG. 1B panel a) or RFP (FIG. 1B panel b, the control). Expression of CLL1-RFP or RFP could be visualized by the appearance of red fluorescence. For subsequent in depth characterization, we selected the peptide […] (SEQ ID NO: 17) instead of […] (SEQ ID NO: 23) because aspartic acid (D) is more hydrophilic than proline (P), which makes the peptide more water soluble and easier to synthesize and manipulate. A549 cells expressing CCL1-RFP or RFP alone were incubated with phage displaying the […] (SEQ ID NO: 17) peptide, and probed with anti-M13 monoclonal antibody-FITC conjugate. […] This peptide is named CLL1-L1 and was used for all subsequent experiments. Flow cytometry studies were also performed to determine cell binding. CLL1-L1 was conjugated to biotin through the polyethylene glycol (PEG) linker. Cells were incubated with biotinylated CLL1-L1 and probed with streptavidin-PE. […]

[7] = streptavidin-PE, flow cytometry (FIG. 1C)

## COc1cccc2c1C(=O)c1c(O)c3c(c(O)c1C2=O)C[C@@](O)(C(C)=O)C[C@@H]3O[C@H]1C[C@H](N)[C@H](O)[C@H](C)O1 [free DNR, daunorubicin]
[1]
  Weight changes: no significant weight changes
[2]
  MTD: 10 mg/kg

## CDLRSAAVC (disulfide 1-9 (inferred)) [CLL1-L1, CLL1-targeting peptide from C7C phage display library, cyclized via the two cysteines]
[3]
  Phage detected on cell surface: detected on the surface
[4]
  Phage detected on cell surface: not on cells expressing RFP
[5]; SA-PE (FIG. 1D)
  Binding to A549 and K562 cells that expressed recombinant CLL1: bound
[5]; streptavidin probe, flow cytometry (FIG. 1C)
  Binding to A549 cells expressing CLL1: significant binding
[6]; SA-PE (FIG. 1D)
  Binding to parental A549, K562 or other cell lines: not
[6]; [7]
  Binding to A549 control cells: No significant binding
  Binding to PBMC: No significant binding
